Patent US7951794B2, “Thiophene derivatives” (Actelion Pharmaceuticals Ltd., priority 2005, dated 2011)

What was measured:
[1] = molecular target: recombinant human S1P1 receptor (Homo sapiens, UniProt P21453); assay: GTPγS assay to determine EC50 values; assay type: biochemical; conditions: 35S-GTPγS binding, membrane preparations of CHO cells expressing recombinant human S1P1 receptor, pH 7.4
Procedure: GTPγS binding assays are performed in 96 well microtiter plates (Nunc, 442587) in a final volume of 200 μl, using membrane preparations of CHO cells expressing recombinant human S1P1 receptor. Assay conditions are 20 mM Hepes (Fluka, 54461), 100 mM NaCl (Fluka, 71378), 5 mM MgCl2 (Fluka, 63064), 0.1% BSA (Calbiochem, 126609), 1 μM GDP (Sigma, G-7127), 2.5% DMSO (Fluka, 41644), […] ^35S-GTPγS (Amersham Biosciences, SJ1320). The pH is 7.4. Test compounds are dissolved and diluted in 100% DMSO and pre-incubated at room temperature for 30 min in 150 μl of the above assay buffer, in the absence of ^35S-GTPγS. After addition of 50 μl of ^35S-GTPγS, the assay is incubated for 1 h at room temperature.
The assay is terminated by transfer of the reaction mixture to a Multiscreen plate (Millipore, MAHFC1H60) using a cell harvester from Packard Biosciences, and the plates are washed with ice-cold 10 mM Na2HPO4/NaH2PO4 (70%/30%), dried, sealed at the bottom and, after addition of 25 μl MicroScint20 (Packard Biosciences, order no. 6013621), sealed on the top. Membrane-bound ^35S-GTPγS is measured with a TopCount from Packard Biosciences.
EC50 is the concentration of agonist inducing 50% of the maximal specific ^35S-GTPγS binding. Specific binding is determined by subtracting non-specific binding from maximal binding. Maximal binding is the amount of cpm bound to the Multiscreen plate in the presence of 10 μM of S1P. Non-specific binding is the amount of binding in the absence of an agonist in the assay.

circulating lymphocytes = assay: Assessment of in vivo efficacy: circulating lymphocytes after oral administration; conditions: 3 h after oral administration of 10 mg/kg to normotensive male Wistar rats, compared to vehicle-treated group
Procedure: The efficacy of the compounds of Formula (I) is assessed by measuring the circulating lymphocytes after oral administration of 3 to 30 mg/kg of a compound of Formula (I) to normotensive male Wistar rats. The animals are housed in climate-controlled conditions with a 12 h-light/dark cycle, and have free access to normal rat chow and drinking water. Blood is collected before and 3, 6 and 24 h after drug administration. Full blood is subjected to hematology using Advia Hematology system (Bayer Diagnostics, Zürich, Switzerland).
All data are presented as mean±SEM. Statistical analyses are performed by analysis of variance (ANOVA) using Statistica (StatSoft) and the Student-Newman-Keuls procedure for multiple comparisons. The null hypothesis is rejected when p<0.05.

Sequence of recombinant human S1P1 receptor (P21453 whole entry): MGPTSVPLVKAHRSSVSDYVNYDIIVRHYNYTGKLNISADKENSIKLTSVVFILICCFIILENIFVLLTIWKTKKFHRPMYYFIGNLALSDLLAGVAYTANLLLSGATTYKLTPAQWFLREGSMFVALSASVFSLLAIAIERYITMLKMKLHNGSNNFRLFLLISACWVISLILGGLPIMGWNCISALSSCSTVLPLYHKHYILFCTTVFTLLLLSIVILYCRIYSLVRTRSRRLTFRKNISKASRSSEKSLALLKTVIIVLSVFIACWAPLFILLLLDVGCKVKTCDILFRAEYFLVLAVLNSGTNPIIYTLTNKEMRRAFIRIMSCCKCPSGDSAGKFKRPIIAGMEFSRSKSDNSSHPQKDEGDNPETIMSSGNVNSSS

EC50 [1] [nM]	Structure (SMILES)	Lymphocyte counts (circulating lymphocytes) [%]
18.3	CCc1sc(C(=O)CCc2cc(C)c(CC(O)CO)c(C)c2)cc1-c1ccccc1 (stereo not shown) [Example 11, 3-[4-(2,3-dihydroxy-propyl)-3,5-dimethyl-phenyl]-1-(5-ethyl-4-phenyl-thiophen-2-yl)-propan-1-one]	–
9.3	CCc1ccccc1-c1cc(C(=O)CCc2cc(C)c(OC[C@@H](O)CO)c(C)c2)sc1CC [Example 31]	–
11.5	CCc1sc(C(=O)CCc2cc(C)c(OC[C@@H](O)CO)c(C)c2)cc1-c1ccccc1OC [Example 50]	–
16.4	CCCc1sc(C(=O)CCc2cc(C)c(OC[C@@H](O)CO)c(C)c2)cc1-c1ccccc1 [Example 24, 3-[4-((S)-2,3-dihydroxy-propoxy)-3,5-dimethyl-phenyl]-1-(4-phenyl-5-propyl-thiophen-2-yl)-propan-1-one]	–
6.3	CCc1sc(C(=O)CCc2cc(C)c(OC[C@@H](O)CO)c(C)c2)cc1-c1ccccc1C [Example 20, 3-[4-((S)-2,3-dihydroxy-propoxy)-3,5-dimethyl-phenyl]-1-(5-ethyl-4-o-tolyl-thiophen-2-yl)-propan-1-one]	–
6.7	CCc1sc(C(=O)CCc2cc(C)c(OC[C@@H](O)CO)c(C)c2)cc1-c1ccccc1 [Example 10, 3-[4-((S)-2,3-dihydroxy-propoxy)-3,5-dimethyl-phenyl]-1-(5-ethyl-4-phenyl-thiophen-2-yl)-propan-1-one]	−48.5
